According to PubChem BioAssay AID179 (DTP/NCI, 2004):
Activity calls are given as the source filed them.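 Rule for the calls: active = compounds giving half or more protection of infected cells from virus-caused growth loss, again on retest; inactive = the rest.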

Tested on: CEM cells HIV-1 protection, formazan growth assay
Test: NCI AIDS Antiviral Assay
Conditions: for IC50: measured here: growth of uninfected CEM cells
Summary of the method: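 CEM (human) cells, HIV-1 infected vs uninfected, 5-point dosing, formazan growth read-out. Retest threshold 50% protection.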

| SMILES | EC50 | IC50 | outcome |
| --- | --- | --- | --- |
| O=C(O)c1ccccc1C(=O)Nc1ccc(S(=O)(=O)Nc2nccs2)cc1 | > 200 µM | > 200 µM |  |
| COc1cc(C2c3cc4c(cc3OC(NNc3ccccc3)C2C)OCO4)cc(OC)c1OC (stereo not drawn) | > 200 µM | 3.89 µM |  |
| N#Cc1ccc2oc3ccc(C#N)cc3c(=O)c2c1 |  |  | inactive |
| Cc1ccc2cc(NC(=O)CN)c3ccc(C)nc3c2n1.Cc1ccc2cc(NC(=O)CN)c3ccc(C)nc3c2n1.O=C1OC(C(O)C[O-])C(O)=C1O.[Cu+] | > 12.6 µM | 0.562 µM |  |
| COc1ccc2c(ccc3c(C(=O)NCCCN(C)CCCNC(=O)c4cn(C)c5c4ccc4cc(OC)ccc45)cn(C)c32)c1 | > 200 µM | 1.15 µM |  |
| COC(=O)C12C3C4C1C1C2C3C41C(=O)NC(C)(C)CC(=O)O (stereo not drawn) | > 200 µM | > 200 µM |  |
| COc1ccc2c(O)c(-c3ccc(OC)c(OC)c3)c(=O)oc2c1 |  |  | inactive |
| O=C(/C=C(\C(=O)c1cccs1)c1cccs1)c1ccc(C(=O)/C=C(\C(=O)c2cccs2)c2cccs2)cc1 | > 200 µM | > 200 µM |  |
| Cc1ccc(O)c(C(c2ccc([N+](=O)[O-])cc2)c2cc(C)ccc2O)c1 |  |  | inactive |
| CC[P+](C)(Cc1ccccc1)c1ccccc1 (stereo not drawn) | 0.0631 µM | 81.3 µM |  |
| CCCc1cc(=O)oc2c3c(c4c(c12)OC(C)(C)[C@H](OC(=O)c1ccc(Br)cc1)[C@@H]4OC(=O)c1ccc(Br)cc1)O[C@@H](C)[C@H](C)[C@@H]3OC(=O)c1ccc(Br)cc1 | > 200 µM | > 200 µM |  |
| NC(CSS(=O)(=O)O)=NCCCCc1ccccc1 | > 200 µM | 107 µM |  |
| CCOC(=O)C=C1CCC2(CC1)OCCO2 | > 251 µM | > 251 µM |  |
| CSCCCS/C1=C/CCCCCCCCCC1 | > 200 µM | > 200 µM |  |
| Cn1c(=O)c(Cl)c(N=[N+]=[N-])c2ccccc21 | > 75.9 µM | 55 µM |  |
| Cc1ccc(S(=O)(=O)c2ccsc2NC(=O)C(F)(F)F)cc1 | > 200 µM | 46.8 µM |  |
| C=CCCC(OCOCCOC)c1cc(C)c(O[Si](C)(C)C(C)(C)C)c(C)c1 (stereo not drawn) | > 50.1 µM | 29.5 µM |  |
| N=C(N)Cc1ccc(NC(=O)c2ccc(C(=O)Nc3ccc(CC(=N)N)cc3)cc2)cc1 | > 70.8 µM | 22.4 µM |  |
| COc1ccc(CC#C/C=C/C(=O)NCC(C)C)cc1 | > 95.5 µM | 14.1 µM |  |
| Cn1c2ccccc2c(=O)c2c([N+](=O)[O-])ccc(NCCN)c21 |  |  | inactive |
| c1ccc(-n2cnnc2-c2nsc3ccccc23)cc1 | > 93.3 µM | > 93.3 µM |  |
| CCOC1(OCC)CS(=O)(=O)C1c1ccc([N+](=O)[O-])cc1 (stereo not drawn) | > 200 µM | > 200 µM |  |

| SMILES | EC50 | IC50 | outcome |
| --- | --- | --- | --- |
| COc1ccc2c(c1)NC(=O)C(O)(Cc1ccccc1)C2=O (stereo not drawn) | > 200 µM | > 200 µM |  |
| COc1cc(C2c3c(oc4ccccc4c3=O)Oc3oc4ccccc4c(=O)c32)cc(OC)c1O | > 5.75 µM | > 5.75 µM |  |
| COC(=O)C1C(C(=O)OC)C2C(=O)C3C(C(=O)OC)C(C(=O)OC)C3C(=O)C12 (stereo not drawn) | > 91.2 µM | > 91.2 µM |  |
| CCCCN1C(=O)C2c3[nH]c4ccccc4c3C3CCCCC3C2C1=O (mixture of isomers) |  |  | inactive |
| O=C1NCCN1C(=O)Nc1ccc(S(=O)(=O)c2ccc([N+](=O)[O-])cc2)cc1 | > 200 µM | 74.1 µM |  |
| CCC[CH2][Sn]([CH2]CCC)([O]C(=O)C(OC)c1ccccc1)[O]C(=O)C(OC)c1ccccc1 (stereo not drawn) | > 6.76 µM | 0.182 µM |  |
| CC(C)NCCCCCNc1cccc2cccnc12 | > 200 µM | 28.8 µM |  |
| O=C1/C=C/C(=O)OCCCC(=O)/C=C/C(=O)OCCC1 |  |  | inactive |
| NC(=S)NNc1c([N+](=O)[O-])cnn(-c2ccccc2)c1=O | > 58.9 µM | 0.324 µM |  |
| O=C1C2=C(SCCS2)C(=O)c2ccccc21 | > 42.7 µM | 0.676 µM |  |
| COC(=O)C1C=CCC2CCCCC21N1CCCC1 (stereo not drawn) |  |  | inactive |
| O=C(CCCn1ccnc1[N+](=O)[O-])NCCn1ccnc1 |  |  | inactive |
| Cc1cc(NC(=O)C(=O)Cc2nc3ccccc3s2)ccc1Cl | > 20.9 µM | > 20.9 µM |  |
| COC(=O)c1cc(C(=CCC[C@H]2CC[C@@]3(C)C(CCC4C3CC[C@@]3(C)C4CC[C@@H]3C(C)CCCC(C)C)C2)c2cc(Cl)c(O)c(C(=O)OC)c2)cc(Cl)c1O (stereo partly drawn) | > 200 µM | > 200 µM |  |
| Cc1cc(C)nc(NS(=O)(=O)c2ccc(N)cc2)n1 | > 200 µM | > 200 µM |  |
| CCOC(=O)CC[C@H](NC(=O)N[C@H](C)c1ccccc1)C(=O)OCC | > 200 µM | 39.8 µM |  |
| CCC1=NS(=O)(=O)c2c(ncn2C)N1 | > 1150 µM | > 1150 µM |  |
| O=C(/C=C\c1ccc(/C=C/C(=O)Nc2cccc(C3=NCCCN3)c2)cc1)Nc1cccc(C2=NCCCN2)c1 | > 44.7 µM | 8.13 µM |  |
| CCCCCCC(=O)COP(=O)(OCC(=O)CCCCCC)OCC1OC(n2cc(C)c(=O)[nH]c2=O)CC1N=[N+]=[N-] (stereo not drawn) | 0.00107 µM | 2 µM |  |
| Cn1c2ccccc2c2c3c(ccc21)C(=O)N(c1ccccc1)C3=O | > 93.3 µM | 60.3 µM |  |
| CN(C)c1ccc(N=Nc2ccc3c(c2)C(=O)c2ccccc2C3=O)cc1 | > 200 µM | > 200 µM |  |
